Key:
T7 RNA polymerase [1] = target: T1, T7 RNA polymerase (Escherichia phage T7, UniProt P00573); test: In vitro transcription yield of mRNA using cap analogs; format: biochemical; details: for Yield per unit template: in vitro transcription, 1 μg DNA template, 37° C., 2 hours
Protocol: • (1) Capping synthesis using cap analogs
The plasmid was first linearized with plasmid linearizing enzyme, and then the linearized plasmid was purified. • (2) In vitro transcription and synthesis of mRNA
(§1) During the experiment, the volume of materials required for the system was first calculated, and then sample addition was conducted. The system was first added with sterile enzyme-free water, followed by the sequential addition of 10× buffer, NTPs, and cap analogs, mixed well, and gently centrifuged. Nuclease inhibitors, inorganic pyrophosphatase, T7RNA polymerase, and linearized DNA templates were then added thereto. The system was mixed well, gently centrifuged, and incubated at 37° C. After 2 hours of incubation, the system was added with 1 U of DNase I and incubated at 37° C. for another 30 minutes. The mRNA precipitate was then washed with 75% ethanol, and after the ethanol was briefly evaporated to dryness, the mRNA was redissolved in sterile enzyme-free water. • (3) The transcription product was purified, and the in vitro transcription yield of mRNA was recorded. • (4) The obtained mRNA was subjected to an annealing reaction with a probe.

BALB/C mice = test: In vivo imaging of Fluc-mRNA LNP expression in mice
Protocol: The LNP preparation containing 5 μg of cap analog-transcribed Fluc-mRNA was intramuscularly injected into female BALB/C mice aged 4 to 6 weeks and weighing 17 to 19 g. At specific time points after administration (6 hours, 12 hours, 24 hours, 48 hours, 96 hours, and 168 hours), the mice were intraperitoneally injected with fluorescence imaging substrate. The mice were then allowed to move freely for 5 minutes, followed by detection of the total radiation intensity of the protein expressed by LNP-carrying mRNA in the mice using an IVIS Spectrum small-animal in vivo imaging system (corresponding to the amount of protein expression).
In the in vivo imaging experiments in mice, the multiple of the total radiation intensity for each group of mice relative to the m6A group is shown in Table 8 (where the total radiation intensity is represented as the given value×10^8 p/s).

T7 RNA polymerase [2] = target: T1, T7 RNA polymerase; test: Capping rate of mRNA transcription initiated by cap analogs (LC-MS); format: biochemical; details: for Capping rate: LC-MS of mRNA 5′ fragment
Protocol: as §1
The annealing reaction was performed in a PCR instrument: 95° C. for 5 minutes; 65° C. for 2 minutes; 55° C. for 2 minutes; 40° C. for 2 minutes; 22° C. for 2 minutes. • (5) Magnetic bead pretreatment and probe binding: 100 μL of magnetic beads was placed on a magnetic frame for pretreatment. The magnetic bead solution was added with 120 μL of sample and incubated at room temperature for 30 minutes with slow mixing. • (6) mRNA splicing and obtaining the mRNA 5′ single-strand sequence bound to the probe
The mixture was added with 20 μL of RNase H (5 U/μL) and incubated at 37° C. for 3 hours with mixing every half hour. After incubation, the magnetic beads were washed and then added with 100 μL of 75% methanol heated to 80° C. The mixture was heated to 80° C. on a heating plate, held for 3 minutes, then placed on a magnetic frame to aspirate the supernatant, and dried at room temperature for 45 minutes to a volume of 10 μL using a centrifugal evaporator. The sample was then resuspended in 50 μL of 100 μM EDTA/1% MeOH and ready for LC-MS analysis to determine the capping of RNA in the transcription reaction. Since there is a significant difference in molecular weight between capped and uncapped bases, the capping rate of mRNA transcription initiated by different cap analogs can be determined based on the difference in molecular mass.

DCP2 enzyme = target: T2, DCP2 enzyme (Schizosaccharomyces pombe, UniProt O13828); test: Decapping enzyme stability test; format: biochemical; details: for Decapping rate (%) of DCP2 enzyme: 50 U mRNA decapping enzyme, 37° C., 45 minutes
T2 construct: purchased New England Biolabs
T2 sequence (O13828 1-243 limits assumed): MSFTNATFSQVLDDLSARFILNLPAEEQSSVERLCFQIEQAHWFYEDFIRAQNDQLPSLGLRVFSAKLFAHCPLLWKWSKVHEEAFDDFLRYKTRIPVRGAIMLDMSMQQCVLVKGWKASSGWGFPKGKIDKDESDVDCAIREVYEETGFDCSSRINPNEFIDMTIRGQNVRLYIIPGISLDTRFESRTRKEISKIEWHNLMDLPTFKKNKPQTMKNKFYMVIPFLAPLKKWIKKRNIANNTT
T2 sequence (Q9P805 1-127 partner): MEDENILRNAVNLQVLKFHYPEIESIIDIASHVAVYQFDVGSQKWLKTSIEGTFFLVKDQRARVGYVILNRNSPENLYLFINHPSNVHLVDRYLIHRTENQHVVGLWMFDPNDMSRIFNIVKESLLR
T2 sequence (Q10108 155-180 partner limits assumed): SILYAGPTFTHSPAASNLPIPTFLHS
Protocol: […] of RNA purified by polyacrylamide gel electrophoresis (PAGE) was subjected to an enzymatic reaction with 50 U of mRNA decapping enzyme (New England Biolabs) and 1×MDE buffer at 37° C. for 45 minutes. The enzymatic reactants were subjected to PAGE and stained with SYBR Green II (Lonza), followed by observation of the post-electrophoresis gel image on a Typhoon FLA 7000 (GE Healthcare) instrument. The electrophoresis band intensity ratio of RNA capping to RNA decapping was counted using ImageQuant (GE Healthcare) software, and the decapping rate of the decapping enzyme was calculated.

[3] = 6 h, 5 μg Fluc-mRNA LNP intramuscular, mice
[4] = 12 h, 5 μg Fluc-mRNA LNP intramuscular, mice
[5] = 24 h, 5 μg Fluc-mRNA LNP intramuscular, mice
[6] = 48 h, 5 μg Fluc-mRNA LNP intramuscular, mice
[7] = 96 h, 5 μg Fluc-mRNA LNP intramuscular, mice
[8] = 168 h, 5 μg Fluc-mRNA LNP intramuscular, mice

T1 sequence (P00573 whole entry): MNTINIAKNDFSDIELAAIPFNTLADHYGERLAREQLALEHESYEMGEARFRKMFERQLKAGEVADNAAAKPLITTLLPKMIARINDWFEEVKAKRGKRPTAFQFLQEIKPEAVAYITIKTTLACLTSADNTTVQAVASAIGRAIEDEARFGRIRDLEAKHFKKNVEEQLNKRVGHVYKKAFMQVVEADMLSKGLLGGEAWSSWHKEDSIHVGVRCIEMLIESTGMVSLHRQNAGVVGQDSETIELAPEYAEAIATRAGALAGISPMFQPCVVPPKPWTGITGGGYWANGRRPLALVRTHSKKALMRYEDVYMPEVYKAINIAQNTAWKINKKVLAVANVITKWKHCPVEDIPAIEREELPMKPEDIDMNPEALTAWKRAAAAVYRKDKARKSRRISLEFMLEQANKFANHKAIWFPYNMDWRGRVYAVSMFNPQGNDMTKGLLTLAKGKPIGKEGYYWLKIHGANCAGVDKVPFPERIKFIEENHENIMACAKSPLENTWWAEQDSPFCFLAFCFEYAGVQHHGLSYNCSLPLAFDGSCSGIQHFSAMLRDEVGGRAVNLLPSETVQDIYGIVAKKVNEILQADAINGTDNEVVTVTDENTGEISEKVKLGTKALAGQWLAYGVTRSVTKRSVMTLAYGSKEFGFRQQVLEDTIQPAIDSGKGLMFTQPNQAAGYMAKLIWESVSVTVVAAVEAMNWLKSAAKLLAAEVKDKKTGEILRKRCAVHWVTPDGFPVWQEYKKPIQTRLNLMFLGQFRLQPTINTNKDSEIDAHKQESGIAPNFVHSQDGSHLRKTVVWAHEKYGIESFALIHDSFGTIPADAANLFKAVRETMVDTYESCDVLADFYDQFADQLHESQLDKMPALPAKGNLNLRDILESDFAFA

Row | Structure (SMILES) | Yield per unit template (T7 RNA polymerase [1]) [µg] | Increase relative to 5227 (in vitro transcription yield) (T7 RNA polymerase [1]) [%] | Multiple of total radiation intensity relative to m6A (BALB/C mice; 6 h) | Total radiation intensity (BALB/C mice; [3]) | Multiple of total radiation intensity relative to m6A (BALB/C mice; 12 h) | Total radiation intensity (BALB/C mice; [4]) | Multiple of total radiation intensity relative to m6A (BALB/C mice; 24 h) | Total radiation intensity (BALB/C mice; [5]) | Multiple of total radiation intensity relative to m6A (BALB/C mice; 48 h) | Total radiation intensity (BALB/C mice; [6]) | Multiple of total radiation intensity relative to m6A (BALB/C mice; 96 h) | Total radiation intensity (BALB/C mice; [7]) | Total radiation intensity (BALB/C mice; [8]) | Capping rate (T7 RNA polymerase [2]) [%] | Increase relative to 5227 (capping rate) (T7 RNA polymerase [2]) [%] | Decapping rate (%) of DCP2 enzyme (DCP2 enzyme) [%] | Decrease relative to N-7113 (decapping rate) (DCP2 enzyme) [%] | Total radiation intensity (BALB/C mice; at 12 hours) | Total radiation intensity (BALB/C mice; at 48 hours) | further results
1 | CO[C@@H]1[C@H](OP(=O)(O)OC[C@H]2O[C@@H](n3cnc4c(=O)[nH]c(N)nc43)[C@H](O)[C@@H]2O)[C@@H](COP(=O)(O)OP(=O)(O)OP(=O)(O)OC[C@@]2(CF)O[C@@H]([n+]3cn(C)c4c(=O)[nH]c(N)nc43)[C@H](O)[C@@H]2O)O[C@H]1n1cnc2c(N)ncnc21 [YK-CAP-118] | 172.2 | 28.3 | 3.0 | 7.06 ×108 p/s | 3.0 | 6.28 ×108 p/s | 3.1 | 2.03 ×108 p/s | 2.6 | 1.33 ×108 p/s | 1.2 | 0.35 ×108 p/s | 0.02 ×108 p/s | 97.2 | 35.2 | 11.9 | 31.9 |  |  | 
2 | CO[C@@H]1[C@H](OP(=O)(O)OC[C@H]2O[C@@H](n3cnc4c(=O)[nH]c(N)nc43)[C@H](O)[C@@H]2O)[C@@H](COP(=O)(O)OP(=O)(O)OP(=O)(O)OC[C@H]2OC([n+]3cn(C)c4c(=O)[nH]c(N)nc43)[C@H](O)[C@@H](O)[C@@H]2O)O[C@H]1n1cnc2c(N)ncnc21 (stereo partly drawn) [YK-CAP-101] | 32.5 | −75.8 | 0.8 | 1.81 ×108 p/s | 0.5 | 0.96 ×108 p/s | 0.5 | 0.36 ×108 p/s | 0.4 | 0.19 ×108 p/s | 1.5 | 0.04 ×108 p/s | 0.02 ×108 p/s | 42.8 | −40.5 | 32.4 | 11.4 | 0.96 ×10^8 p/s | 0.19 ×10^8 p/s | 
3 | COC[C@@H]1[C@H](OP(=O)(O)OC[C@H]2O[C@@H](n3cnc4c(=O)[nH]c(N)nc43)[C@H](O)[C@@H]2O)[C@@H](COP(=O)(O)OP(=O)(O)OP(=O)(O)OC[C@H]2O[C@@H]([n+]3cn(C)c4c(=O)[nH]c(N)nc43)[C@H](O)[C@@H]2O)O[C@H]1n1cnc2c(N)ncnc21 [YK-CAP-113] | 166.1 | 23.8 | 2.6 | 6.07 ×108 p/s | 3.6 | 7.63 ×108 p/s | 3.1 | 2.02 ×108 p/s | 2.5 | 1.29 ×108 p/s | 1.2 | 0.31 ×108 p/s | 0.04 ×108 p/s | 95.2 | 32.4 | 15.3 | 28.5 |  |  | 
4 | CO[C@@H]1[C@H](OP(=O)(O)OC[C@H]2O[C@@H](n3cnc4c(=O)[nH]c(N)nc43)[C@H](O)[C@@H]2O)[C@@H](COP(=O)(O)OP(=O)(O)OP(=O)(O)OC[C@H]2O[C@@H]([n+]3cn(C)c4c(=O)[nH]c(N)nc43)[C@H](O)[C@@H]2C(F)F)O[C@H]1n1cnc2c(N)ncnc21 [YK-CAP-110] | 172.1 | 28.2 | 4.1 | 9.52 ×108 p/s | 5.0 | 10.55 ×108 p/s | 4.6 | 3.04 ×108 p/s | 4.4 | 2.30 ×108 p/s | 1.0 | 0.27 ×108 p/s | 0.04 ×108 p/s | 97.4 | 35.5 | 10.2 | 33.6 | 10.55 ×10^8 p/s | 2.30 ×10^8 p/s | Total radiation intensity, times that of N-7113 (BALB/C mice; at 12 hours): 2.4 times; Total radiation intensity, times that of YK-CAP-101 (BALB/C mice; at 12 hours): 11.0 times; Total radiation intensity, times that of N-7113 (BALB/C mice; at 48 hours): 4.7 times; Total radiation intensity, times that of YK-CAP-101 (BALB/C mice; at 48 hours): 12.1 times; Decapping rate lower than that of HN3002 (DCP2 enzyme; relative to HN3002): 13.1%; Decapping rate lower than that of YK-CAP-101 (DCP2 enzyme; relative to YK-CAP-101): 22.2%; Decapping rate lower than that of YK-CAP-102 (DCP2 enzyme; relative to YK-CAP-102): 31.0%; Decapping rate lower than that of YK-CAP-103 (DCP2 enzyme; relative to YK-CAP-103): 26.3%; Decapping rate lower than that of YK-CAP-104 (DCP2 enzyme; relative to YK-CAP-104): 35.9%; Decapping rate lower than that of YK-CAP-105 (DCP2 enzyme; relative to YK-CAP-105): 23.7%; Decapping rate lower than that of compound 14 (DCP2 enzyme; relative to compound 14): 16.6%; Decapping rate lower than that of m6A (DCP2 enzyme; relative to m6A): 23.6%

From patent publication US12576099B2, “Ribose-modified cap analog and use thereof” (Beijing Youcare Kechuang Pharmaceutical Technology Co., Ltd., priority 2024, dated 2026)
